Tests used:
Prothrombin [1] = target: T1, Prothrombin (Homo sapiens, UniProt P00734); experiment: Inhibition of human thrombin pre-incubated for 10 mins before Ac-FVR-AMC substrate addition and measured after 10 mins by fluorescence based assay
Prothrombin [2] = target: T1, Prothrombin; experiment: Inhibition of human thrombin at 1 ug/ml pre-incubated for 10 mins before Ac-FVR-AMC substrate addition and measured after 10 mins by fluorescence based assay
Rattus norvegicus = species on record: Rattus norvegicus; experiment: Anticoagulant activity in rat assessed as inhibition of arteriovenous thrombosis at 0.5 mg/ml after 15 mins relative to control; type: functional

| IC50 (Prothrombin [1]) [nM] | inhibition (Prothrombin [2]) [%] | Compound | inhibition (INH) (Rattus norvegicus) [%] |
| --- | --- | --- | --- |
| 1.62 | > 90 | CCn1c(CNc2ccc(C(=N)N)cc2)nc2cc(C(=O)N(CCC(=O)O)c3cc(C)ccn3)ccc21 | – |
| – | – | Cn1c(CNc2ccc(C(=N)N)cc2)nc2cc(C(=O)N(CCC(=O)O)c3ccccn3)ccc21 [DABIGATRAN] | 85.07 |
| 6.59 | > 90 | CCn1c(CNc2ccc(C(=N)N)cc2)nc2cc(C(=O)N(CCC(=O)O)c3cccc(C)c3C)ccc21 | – |
| 4.69 | > 90 | CCn1c(CNc2ccc(C(=N)N)cc2)nc2cc(C(=O)N(CCC(=O)O)c3ccccc3)ccc21 | – |
| 4.98 | > 90 | CCn1c(CNc2ccc(C(=N)N)cc2)nc2cc(C(=O)N(CCC(=O)O)c3ccc(C)cc3)ccc21 | – |
| 3.11 | > 90 | CCn1c(CNc2ccc(C(=N)N)cc2)nc2cc(C(=O)N(CCC(=O)O)c3ccccc3C)ccc21 | 77.93 |
| 0.96 | > 90 | CCn1c(CNc2ccc(C(=N)N)cc2)nc2cc(C(=O)N(CCC(=O)O)c3cccc(C)n3)ccc21 | 85.35 |
| 2.13 | > 90 | CCn1c(CNc2ccc(C(=N)N)cc2)nc2cc(C(=O)N(CCC(=O)O)c3cccc(C)c3)ccc21 | – |
| 4.23 | > 90 | CCn1c(CNc2ccc(C(=N)N)cc2)nc2cc(C(=O)N(CCC(=O)O)c3ccc(F)cc3F)ccc21 | – |
| 6.27 | > 90 | CCn1c(CNc2ccc(C(=N)N)cc2)nc2cc(C(=O)N(CCC(=O)O)c3ccc(F)c(C)c3)ccc21 | – |
| 3.1 | > 90 | CCn1c(CNc2ccc(C(=N)N)cc2)nc2cc(C(=O)N(CCC(=O)O)c3c(C)cccc3C)ccc21 | – |
| 16.4 | > 90 | CCn1c(CNc2ccc(C(=N)N)cc2)nc2cc(C(=O)N(CCC(=O)O)c3ccc(C)cc3C)ccc21 | – |
